The source of these data is patent US4968717A, “Phenylacetonitriles which are substituted by basic groups, their preparation and drugs containing these substances” (BASF Aktiengesellschaft, priority 1986, dated 1990).

The first test has as its system serotonin-induced increase in blood pressure. The test can be described thus: inhibition of the serotonin-induced increase in blood pressure in the pithed rat on intravenous administration. The test is classed as in vivo, male Sprague-Dawley rats. The conditions noted are these: at dose 0.0464 mg/kg. The source says: Pithing is effected by means of a rod through the orbit. […] The criterium for effectiveness of a substance is the relative inhibition (Δ%) of the serotonin-induced increase in blood pressure (ΔmmHg). The valuation was effected quantitatively as an analysis of the linear regression (y=a+b x) of log dose (mg/kg) and relative inhibition (Δ%) of the serotonin-induced increase in blood pressure.
Regarding `COc1cc(CCN(C)CCCC(C#N)(c2ccc(Cl)cc2)C(C)C)cc(OC)c1` (stereo not shown) [Example 42, 5-[(3,5-dimethoxyphenethyl)-methylamino]-2-(4-chlorophenyl)-2-isopropylvaleronitrile], the “relative inhibition (Δ%) of the serotonin-induced increase in blood pressure” value turned out to be 19%.

The same test, now with this note: at dose 0.1 mg/kg.
Regarding `COc1ccc(CCN(C)CCCC(C#N)(c2cc(OC)c(OC)c(OC)c2)C(C)C)cc1OC` (stereo not shown) [Gallopamil, reference compound], the “relative inhibition (Δ%) of the serotonin-induced increase in blood pressure” value came to 22%.

The same test, now with this note: serotonin 0.0215 mg/kg i.v., linear regression of log dose and relative inhibition.
For “5-[(3,5-dimethoxyphenethyl)-methylamino]-2-(β,β,β-trifluoroethoxyphenyl)-2-isopropylvaleronitrile [Example 30]”, the “ED 50% (dose which inhibits the serotonin-induced increase in blood pressure by 50%)” value is given as 0.1 mg/kg.

The same test, now with this note: serotonin 0.0215 mg/kg i.v., linear regression of log dose and relative inhibition, read-out: ED 50% (dose which inhibits the serotonin-induced increase in blood pressure by 50%).
For `COc1cc(C(C#N)(CCCN(C)CCc2cccc(C(F)(F)F)c2)C(C)C)cc(OC)c1OC` (stereo not shown) [Example 61, 5-[(3-trifluoromethylphenethyl)-methylamino]-2-(3,4,5-trimethoxyphenyl)-2-isopropylvaleronitrile], the ED50 is 0.0681 mg/kg. `COc1cc(OC)cc(C(C#N)(CCCN(C)CCc2ccc(C)c(C)c2)C(C)C)c1` (stereo not shown) [Example 20, 5-[(3,4-xylylethyl)-methylamino]-2-(3,5-dimethoxyphenyl)-2-isopropylvaleronitrile]: the ED50 turned out to be 0.1 mg/kg.

Regarding `COc1cccc(CCN(C)CCCC(C#N)(c2cc(OC)cc(OC)c2)C(C)C)c1` (stereo not shown) [Example 2, 5-[(3-Methoxyphenethyl)-methylamino]-2-(3,5-dimethoxyphenyl)-2-isopropylvaleronitrile], the ED50 is 0.073 mg/kg. On the same count and under the same terms, the result for `COc1cc(OC)cc(C(C#N)(CCCN(C)CCc2ccc3c(c2)OCO3)C(C)C)c1` (stereo not shown) [Example 27, 5-[(3,4-methylenedioxyphenethyl)-methylamino]-2-(3,5-dimethoxyphenyl)-2-isopropylvaleronitrile] reads 0.0464 mg/kg.

For the molecule `COc1cccc(CCN(C)CCCC(C#N)(c2ccccc2)C(C)C)c1` (stereo not shown) [Example 13, 5-[(3-methoxyphenethyl)-methylamino]-2-phenyl-2-isopropylvaleronitrile], the ED50 is 0.0464 mg/kg.

For the molecule `COc1cc(OC)cc(C(C#N)(CCCN(C)CCc2ccc(Cl)c(Cl)c2)C(C)C)c1` (stereo not shown) [Example 7, 5-[(3,4-Dichlorophenethyl)-methylamino]-2-(3,5-dimethoxyphenyl)-2-isopropylvaleronitrile], the ED50 amounted to 0.1 mg/kg. Still for that read-out and setting: the figure for `C=CCC(C#N)(CCCN(C)CCc1ccccc1)c1cccc(Cl)c1` (stereo not shown) [Example 31, 5-[(phenethyl)-methylamino]-2-(3-chlorophenyl)-2-allylvaleronitrile] is 0.464 mg/kg. Same read-out and setting: the result for `CCOc1cccc(C(C#N)(CCCN(C)CCc2ccc(OC)c(OC)c2)C(C)C)c1` (stereo not shown) [Example 44, 5-[(3,4-dimethoxyphenethyl)-methylamino]-2-(3-ethoxy-phenyl)-2-isopropylvaleronitrile] reads 0.0464 mg/kg.

Regarding `COc1cc(OC)cc(C(C#N)(CCCN(C)CCc2ccc(Cl)cc2)C(C)C)c1` (stereo not shown) [Example 6, 5-[(4-Chlorophenethyl)-methylamino]-2-(3,5-dimethoxyphenyl)-2-isopropylvaleronitrile], the ED50 came to 0.1 mg/kg.

In the case of `COc1cccc(C(C#N)(CCCN(C)CCc2ccccc2)C(C)C)c1` (stereo not shown) [Example 3, 5-[(Phenethyl)-methylamino]-2-(3-methoxyphenyl)-2-isopropylvaleronitrile], the ED50 came to 0.0464 mg/kg. The same measure, in the same setting: the figure for `CCOc1cc(CCN(C)CCCC(C#N)(c2ccccc2)C(C)C)cc(OCC)c1` (stereo not shown) [Example 24, 5-[(3,5-diethoxyphenethyl)-methylamino]-2-phenyl-2-isopropylvaleronitrile] is 0.1 mg/kg; for `COc1cc(CCN(C)CCCC(C#N)(c2ccccc2)C(C)C)cc(OC)c1` (stereo not shown) [Example 14, 5-[(3,5-dimethoxyphenethyl)-methylamino]-2-phenyl-2-isopropylvaleronitrile] it is 0.0464 mg/kg; for `COc1cccc(CCN(C)CCCC(C#N)(c2cc(OC)c(OC)c(OC)c2)C(C)C)c1` (stereo not shown) [Example 36, 5-[(3-methoxyphenethyl)-methylamino]-2-(3,4,5-trimethoxyphenyl)-2-isopropylvaleronitrile] it is 0.0464 mg/kg.

Take `COc1ccc(C(C#N)(CCCN(C)CCc2ccc(Cl)c(Cl)c2)C(C)C)cc1OC` (stereo not shown) [Example 40, 5-[(3,4-dichlorophenethyl)-methylamino]-2-(3,4-dimethoxyphenyl)-2-isopropylvaleronitrile]: the ED50 is 0.1 mg/kg. Same read-out and setting: the figure for `COc1cc(C(C#N)(CCCN(C)CCc2ccc3c(c2)COCO3)C(C)C)cc(OC)c1OC` (stereo not shown) [Example 39, 5-[(1,3-benzodioxan-6-ylethyl)-methylamino]-2-(3,4,5-trimethoxyphenyl)-2-isopropylvaleronitrile] is 0.0395 mg/kg.

Turning to `COc1cc(CCN(C)CCCC(C#N)(c2cc(OC)cc(OC)c2)C(C)C)cc(OC)c1` (stereo not shown) [Example 59, 5-[(3,5-dimethoxyphenethyl)-methylamino]-2-(3,5-dimethoxyphenyl)-2-isopropylvaleronitrile], the ED50 is 0.0464 mg/kg.

In the case of `COc1cccc(CCN(C)CCCC(C#N)(c2cccc(OC)c2)C(C)C)c1` (stereo not shown) [Example 4, 5-[(3-Methoxyphenethyl)-methylamino]-2-(3-methoxy-phenyl)-2-isopropylvaleronitrile], the ED50 stood at 0.0318 mg/kg. Same read-out and setting: the figure for `COc1cc(CCN(C)CCCC(C#N)(C(C)C)C2CCc3ccccc3C2)cc(OC)c1` (stereo not shown) [Example 43, 5-[(3,5-dimethoxyphenethyl)-methylamino]-2-(1,2,3,4-tetrahydronaphth-2-yl)-2-isopropylvaleronitrile] is 0.215 mg/kg; for `COc1cc(CCN(C)CCCC(C#N)(c2ccc(Cl)cc2)C(C)C)cc(OC)c1` (stereo not shown) [Example 42, 5-[(3,5-dimethoxyphenethyl)-methylamino]-2-(4-chlorophenyl)-2-isopropylvaleronitrile] it is more than 0.0464 mg/kg; for `COc1cc(CCN(C)CCCC(C#N)(c2ccc(Cl)c(Cl)c2)C(C)C)cc(OC)c1` (stereo not shown) [Example 41, 5-[(3,5-dimethoxyphenethyl)-methylamino]-2-(3,4-dichlorophenyl)-2-isopropylvaleronitrile] it is 0.1 mg/kg.

Regarding `COc1cc(OC)cc(C(C#N)(CCCN(C)CCc2ccccc2)C(C)C)c1` (stereo not shown) [Example 5, 5-[(Phenethyl)methylamino]-2-(3,5-dimethoxyphenyl)-2-isopropylvaleronitrile], the ED50 was determined as 0.0464 mg/kg. The same measure, in the same setting: the figure for `COc1ccc(CCN(C)CCCC(C#N)(c2cc(OC)c(OC)c(OC)c2)C(C)C)cc1OC` (stereo not shown) [Gallopamil, reference compound] is 0.1 mg/kg; for `COc1cc(OC)cc(C(C#N)(CCCN(C)CCc2cccc(C(F)(F)F)c2)C(C)C)c1` (stereo not shown) [Example 8, 5-[(3-Trifluoromethylphenethyl)-methylamino]-2-(3,5-dimethoxyphenyl)-2-isopropylvaleronitrile] it is 0.0499 mg/kg. For `CCOc1cc(CCN(C)CCCC(C#N)(c2cc(OC)cc(OC)c2)C(C)C)cc(OCC)c1` (stereo not shown) [Example 19, 5-[(3,5-diethoxyphenethyl)-methylamino]-2-(3,5-dimethoxyphenyl)-2-isopropylvaleronitrile], the ED50 worked out at 0.1 mg/kg. In the case of `COc1cc(CCN(C)CCCC(C#N)(c2cccc(OC)c2)C(C)C)cc(OC)c1` (stereo not shown) [Example 1, 5-[(3,5-Dimethoxyphenethyl)-methylamino]-2-(3-methoxyphenyl)-2-isopropylvaleronitrile], the ED50 stood at 0.0464 mg/kg. As to `COc1cc(C(C#N)(CCCN(C)CCc2cccc([N+](=O)[O-])c2)C(C)C)cc(OC)c1OC` (stereo not shown) [Example 37, 5-[(3-nitrophenethyl)-methylamino]-2-(3,4,5-trimethoxyphenyl)-2-isopropylvaleronitrile], the ED50 was 0.0464 mg/kg. On the same count and under the same terms, the result for `C=CCC(C#N)(CCCN(C)CCc1cccc(OC)c1)c1cccc(Cl)c1` (stereo not shown) [Example 32, 5-[(3-methoxyphenethyl)-methylamino]-2-(3-chlorophenyl)-2-allylvaleronitrile] reads 0.316 mg/kg.

Turning to `COc1cc(C(C#N)(CCCN(C)CCc2cccc(Cl)c2)C(C)C)cc(OC)c1OC` (stereo not shown) [Example 38, 5-[(3-chlorophenethyl)-methylamino]-2-(3,4,5-trimethoxyphenyl)-2-isopropylvaleronitrile], the ED50 is 0.0681 mg/kg.

In the case of `COc1cccc(CCN(C)CCC[C@@](C#N)(c2ccc(OC)c(OC)c2)C(C)C)c1` [Example 58, (S)-5-[(3-methoxyphenethyl)-methylamino]-2-(3,4-dimethoxyphenyl)-2-isopropylvaleronitrile], the ED50 worked out at 0.0201 mg/kg. Same read-out and setting: the figure for `CCOc1cccc(C(C#N)(CCCN(C)CCc2cc(OC)cc(OC)c2)C(C)C)c1` (stereo not shown) [Example 17, 5-[(3,5-dimethoxyphenethyl)-methylamino]-2-(3-ethoxy-phenyl)-2-isopropylvaleronitrile] is 0.1 mg/kg.

Turning to `COc1cccc(CCN(C)CCCC(C#N)(c2ccc(OC)c(OC)c2)C(C)C)c1` (racemic) [Example 57, (RS)-5-[(3-methoxyphenethyl)-methylamino]-2-(3,4-dimethoxyphenyl)-2-isopropylvaleronitrile], the ED50 was found to be 0.0423 mg/kg. Still for that read-out and setting: the figure for `COc1cc(C(C#N)(CCCN(C)CCc2ccccc2)C(C)C)cc(OC)c1OC` (stereo not shown) [Example 60, 5-[(phenethyl)-methylamino]-2-(3,4,5-trimethoxyphenyl)-2-isopropylvaleronitrile] is 0.0464 mg/kg.

Another test relates to serotonin.
Assay: not given
The conditions noted are these: literature; versus known serotonin antagonists; cited from earlier work.
`COc1ccc(CCN(C)CCCC(C#N)(c2ccc(OC)c(OC)c2)C(C)C)cc1OC` (stereo not shown) [Verapamil]: the “antiserotonin action compared with known serotonin antagonists” value is “not very pronounced”. Regarding `COc1ccc(CCN(C)CCCC(C#N)(c2cc(OC)c(OC)c(OC)c2)C(C)C)cc1OC` (stereo not shown) [Gallopamil, reference compound], the “antiserotonin action compared with known serotonin antagonists” value was “not very pronounced”.
